Assay results: ChEMBL document CHEMBL1914414, “Selective cholinesterase inhibition by lanostane triterpenes from fruiting bodies of Ganoderma lucidum” (Bioorg Med Chem Lett, 2011)

Experiments:
Cholinesterase = Cholinesterase (Homo sapiens, UniProt P06276); assay: Inhibition of BChE assessed as hydrolysis of butrylcholine preincubated for 15 mins measured after 15 mins by colorimetric Ellman assay
Acetylcholinesterase = Acetylcholinesterase (Homo sapiens, UniProt P22303); assay: Inhibition of AChE assessed as hydrolysis of acetylcholine preincubated for 15 mins measured after 15 mins by colorimetric Ellman assay
Acetylcholinesterase, sequence (P22303 whole entry): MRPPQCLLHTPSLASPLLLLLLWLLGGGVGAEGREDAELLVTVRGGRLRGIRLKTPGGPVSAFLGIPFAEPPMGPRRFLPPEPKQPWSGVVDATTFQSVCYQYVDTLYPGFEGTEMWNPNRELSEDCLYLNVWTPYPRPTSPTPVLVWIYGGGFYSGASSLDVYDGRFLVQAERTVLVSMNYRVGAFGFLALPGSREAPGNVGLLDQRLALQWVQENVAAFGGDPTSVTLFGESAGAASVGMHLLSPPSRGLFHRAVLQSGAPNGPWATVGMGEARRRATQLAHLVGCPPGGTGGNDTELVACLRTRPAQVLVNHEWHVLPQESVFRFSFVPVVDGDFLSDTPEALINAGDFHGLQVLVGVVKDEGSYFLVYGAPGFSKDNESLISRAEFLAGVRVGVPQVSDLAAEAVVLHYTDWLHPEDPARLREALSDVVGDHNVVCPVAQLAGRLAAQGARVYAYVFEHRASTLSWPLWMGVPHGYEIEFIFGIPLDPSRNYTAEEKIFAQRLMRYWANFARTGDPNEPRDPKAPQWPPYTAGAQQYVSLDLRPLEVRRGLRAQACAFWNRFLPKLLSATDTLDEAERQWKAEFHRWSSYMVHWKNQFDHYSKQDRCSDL

Cholinesterase, sequence (P06276 whole entry): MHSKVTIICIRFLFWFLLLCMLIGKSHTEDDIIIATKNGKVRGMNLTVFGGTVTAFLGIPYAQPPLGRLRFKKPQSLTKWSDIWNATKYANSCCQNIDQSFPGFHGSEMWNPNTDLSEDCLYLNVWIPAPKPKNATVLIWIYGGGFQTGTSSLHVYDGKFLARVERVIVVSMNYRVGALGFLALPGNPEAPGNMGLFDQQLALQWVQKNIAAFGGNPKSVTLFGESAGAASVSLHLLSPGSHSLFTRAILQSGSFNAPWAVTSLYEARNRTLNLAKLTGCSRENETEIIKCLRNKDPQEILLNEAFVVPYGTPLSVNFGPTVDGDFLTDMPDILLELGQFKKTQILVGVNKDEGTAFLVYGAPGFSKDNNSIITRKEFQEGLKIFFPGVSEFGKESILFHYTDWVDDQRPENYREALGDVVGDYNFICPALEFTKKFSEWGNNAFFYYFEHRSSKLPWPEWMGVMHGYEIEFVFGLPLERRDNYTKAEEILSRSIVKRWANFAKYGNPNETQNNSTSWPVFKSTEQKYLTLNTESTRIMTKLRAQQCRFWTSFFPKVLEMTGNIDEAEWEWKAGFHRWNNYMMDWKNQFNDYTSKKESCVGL

Compound | IC50 (Cholinesterase) [µM] | IC50 (Acetylcholinesterase) [µM]
CC(CC(=O)C[C@@H](C)[C@H]1C[C@H](O)[C@@]2(C)C3=C(C(=O)C[C@]12C)[C@@]1(C)CCC(=O)C(C)(C)[C@@H]1CC3)C(=O)O (some centres undefined) [GANOLUCIDIC ACID A] | > 200 | 23
CC(CC(=O)C[C@@H](C)[C@H]1CC(=O)[C@@]2(C)C3=C(C(=O)C[C@]12C)[C@@]1(C)CC[C@H](O)C(C)(C)[C@@H]1C[C@@H]3O)C(=O)O (some centres undefined) [GANODERIC ACID B] | > 200 | 22.6
C/C(=C\CC[C@@H](C)[C@H]1CC[C@@]2(C)C3=CC[C@H]4C(C)(C)[C@@H](O)CC[C@]4(C)C3=CC[C@]12C)C(=O)O [GANODERIC ACID Y] | > 200 | 21.1
CCCCOC(=O)CC[C@@H](C)[C@H]1CC[C@@]2(C)C3=C(C(=O)C[C@]12C)[C@@]1(C)CCC(=O)C(C)(C)[C@@H]1C[C@@H]3O | > 200 | 12.3
C[C@H](CC[C@@H](O)C(C)(C)O)[C@H]1CC[C@@]2(C)C3=CC[C@H]4C(C)(C)C(=O)CC[C@]4(C)C3=CC[C@]12C [GANODERMANONDIOL] | > 200 | 25.1
CCCCOC(=O)CC[C@@H](C)[C@H]1CC[C@@]2(C)C3=C(C(=O)C[C@]12C)[C@@]1(C)CC[C@H](O)C(C)(C)[C@@H]1C[C@@H]3O | > 200 | 11.6
CCCCOC(=O)C(C)CC(=O)C[C@@H](C)[C@H]1CC(=O)[C@@]2(C)C3=C(C(=O)[C@@H](OC(C)=O)[C@]12C)[C@@]1(C)CC[C@H](O)C(C)(C)[C@@H]1CC3=O (some centres undefined) | > 200 | 9.4
C[C@H](CC[C@H](O)[C@](C)(O)CO)[C@H]1CC[C@@]2(C)C3=CC[C@H]4C(C)(C)C(=O)CC[C@]4(C)C3=CC[C@]12C [GANODERMANONTRIOL] | > 200 | 22.3
COC(=O)CC[C@@H](C)[C@H]1CC(=O)[C@@]2(C)C3=C(C(=O)[C@@H](OC(C)=O)[C@]12C)[C@@]1(C)CC[C@H](O)C(C)(C)[C@@H]1CC3=O [METHYL LUCIDENATE E2] | > 200 | 17.1
COC(=O)C(C)CC(=O)C[C@@H](C)[C@H]1C[C@H](O)[C@@]2(C)C3=C(C(=O)C[C@]12C)[C@@]1(C)CCC(=O)C(C)(C)[C@@H]1C[C@@H]3O (some centres undefined) [METHYL GANODERATE A] | > 200 | 30.3
C[C@H](CC(=O)C[C@@H](C)[C@H]1CC(=O)[C@@]2(C)C3=C(C(=O)C[C@]12C)[C@@]1(C)CCC(=O)C(C)(C)[C@@H]1CC3=O)C(=O)O [GANODERIC ACID E] | > 200 | 18.4
C/C(=C\CC[C@@H](C)[C@H]1CC[C@@]2(C)C3=CC[C@H]4C(C)(C)[C@@H](O)CC[C@]4(C)C3=CC[C@]12C)CO [GANODEROL B] | > 200 | 26.8
COC(=O)[C@H](C)CC(=O)C[C@@H](C)[C@H]1C[C@@H]2OC(C)(C)O[C@H]3C[C@H]4C(C)(C)C(=O)CC[C@]4(C)C4=C3[C@@]2(C)[C@]1(C)CC4=O [METHYL GANODERATE A ACETONIDE] | > 200 | 18.4
C[C@H](CCC(=O)O)[C@H]1CC(=O)[C@@]2(C)C3=C(C(=O)C[C@]12C)[C@@]1(C)CC[C@H](O)C(C)(C)[C@@H]1C[C@@H]3O [LUCIDENIC ACID N] | 188 | 25.9
C[C@H](CCC(=O)O)[C@H]1CC(=O)[C@@]2(C)C3=C(C(=O)C[C@]12C)[C@@]1(C)CCC(=O)C(C)(C)[C@@H]1C[C@@H]3O [LUCIDENIC ACID A] | > 200 | 24
C/C(=C\CC[C@@H](C)[C@H]1CC[C@@]2(C)C3=C(CC[C@]12C)[C@@]1(C)CC[C@H](O)C(C)(C)[C@@H]1CC3=O)CO [LUCIDADIOL] | 156 | 31
C[C@H](CCC=C(CO)CO)[C@H]1CC[C@@]2(C)C3=CC[C@H]4C(C)(C)C(=O)CC[C@]4(C)C3=CC[C@]12C [GANODERIOL F] | > 200 | 21.8
